Columns and labels:
[1] = tested on: patient with irritable bowel syndrome; assay: irritable bowel syndrome signs or symptoms; format: in vivo, human
From the text: (§1) This example sets forth the treatment of a patient with signs or symptoms of disease associated with reduced blood flow to an organ or tissue (correlated with hypertonicity of the associated blood vessels) using high doses of famciclovir, a compound of Formula (II) where B is H and each of R1 and R2 is CH3C(O)—, at a level and under conditions as explained below.
(§2) A patient weighing about 100 kg having multiple signs or symptoms of autoimmune disease had been ingesting famciclovir for several years at about 10 g per day taken 4 times daily during a 24 hour period. While the subject's condition was tolerable, they were in a regular state of pain in the joints and had other signs or symptoms discussed below.
The patient also presented with irritable bowel syndrome (IBS) signs or symptoms, such as severe distention, cramps and pain spasms. After increasing intake of famciclovir to a maintenance level of 300 mg/kg per day, the patient experienced a dramatic improvement. […] The distended waist circumference was reduced from 44 inches to 38 inches over a period of days, and pain was about 90% relieved. Since the patient experienced no weight loss, the reduction in distention was due to the relief of bowel spasms.

[2] = tested on: patient with Raynaud's syndrome; assay: Raynaud's syndrome signs or symptoms; format: in vivo, human; conditions: 300 mg/kg per day in four equal doses over 24 hours
From the text: as §1, §2
The patient also presented signs or symptoms of Raynaud's syndrome, which involves marked or severe vasoconstriction and ischemia in the extremities, usually fingers and toes. As a result, the patient often experienced extreme pain, cold, discoloration, lack of sensation and weakness in the affected parts. […] The signs or symptoms returned when the frequency of taking the drug was lowered from once every 6 hours to once every 10 hours.

[3] = tested on: patient with Prinzmetal's angina; assay: Prinzmetal's angina chest pain and blood pressure; format: in vivo, human; conditions: 300 mg/kg per day
Protocol: Another effect of the treatment of this invention was reduction in chest pain. A patient with an autoimmune disease was experiencing severe chest pains or Prinzmetal's angina—a coronary artery spasm and associated cardiac ischemia. After taking high doses of anti-herpes drugs, but no drugs specifically for the heart, the patient reported a marked reduction in the symptoms of Prinzmetal's angina, specifically, 95% reduction in pain at 300 mg/kg of famciclovir per day.

patient lung function = assay: lung function by blood oxygenation (pulse oximetry); format: in vivo, human
From the text: Still another example of improvement that the inventor has discovered is improved pulmonary function. […] The pulmonary function was increased to 96% SATS by using the very high dose treatment of this invention. […] Thus the method of this invention can treat and reverse pulmonary hypertension and pulmonary fibrosis. […] Improvements of this kind in this range with this kind of patient (no known existing lung disease) are unusual. Thus, another aspect of this invention is a method to improve pulmonary function by administering a compound in accordance with the teachings herein. Treatments which cause similar improvements in patients with lung disease are direct acting relaxants upon the muscles of the vessels and the airways of the lung. The compounds of this invention have no such direct effect, and can only relax these critical lung muscles by suppressing the herpetically-induced “hypertonus” or resting tone of these muscles which was elevated above normal tone by the herpetic activity in the cells of the sympathetic chain which control these muscles.
An improvement in lung function was seen, possibly via relief of pulmonary hypertension, while taking famciclovir at 300 mg/kg per day. […] The patient's oxyhemoglobin increased from 92% to 96%. This small improvement is significant for this parameter in the 90%-100% range. […]

[4] = tested on: patient with fibromyalgia; assay: fibromyalgia pain; format: in vivo, human; conditions: 300 mg/kg per day
Protocol: Yet another effect was alleviation of fibromyalgia: The pain was reduced by about 95% at 300 mg/kg of famciclovir per day.

[5] = tested on: patient with rheumatoid arthritis; assay: rheumatoid arthritis signs or symptoms; format: in vivo, human; conditions: 300 mg/kg per day
Protocol: Another effect of anti-herpes drugs was elimination of the signs or symptoms of rheumatoid arthritis. A patient experienced 100% reduction in joint swelling, pain, inflammation and clicks at 300 mg/kg of famciclovir per day.

[6] = tested on: patient with nutcracker esophagus; assay: nutcracker esophagus spasms; format: in vivo, human; conditions: 300 mg/kg per day
From the text: Another condition experienced by the patient related to muscle spasms referred to as the “nutcracker esophagus.” This condition involves very painful spasms of the esophagus caused by food touching the hypersensitive “trigger points” inside the esophagus. These spasms can persist from minutes to hours. […] The condition recurs within a few hours when the drug is stopped.

[7] = tested on: patients with autoimmune disease; assay: pain and signs or symptoms of autoimmune disease in general; format: in vivo, human; conditions: very high levels
Protocol: After the drugs take effect, usually in less than an hour, the pain is at least 50% reduced or disappears. This is a particularly surprising and useful discovery.
In the past, it was observed, that a patient that stopped increasing the dosage of the anti-herpes drugs at the threshold of pain rarely achieves the relief of the autoimmune signs or symptoms. Patients who exceed the pain threshold and take over 20 g per day (over 200 mg/kg/day) start experiencing a reduction in autoimmune symptoms for prolonged periods of time. The pain in such patients eventually disappears. Patients who take even higher doses, 30 g per day for a 100 kg subject (300 mg/kg) and higher, experience a continuous relief of at least 90% of all of their autoimmune signs or symptoms, including pain, as long as they continue taking the drug.
Most importantly, the present invention teaches alleviation of pain associated with autoimmune disease. The prior art, including the '114 patent, teaches to use pain as guide when adjusting the maximum dose of the anti-herpes drug. However, it is now disclosed that a patient should tolerate the pain during the initial period of taking extremely high doses of anti-herpes drugs. After the drugs take effect, usually in less than an hour, the pain is at least 50% reduced or disappears. […]

[8] = tested on: patient with reduced renal function; conditions: on the doses of '114 (maximum 120 mg/kg/day); improved from 29 mL/min; cited from earlier work

**Q.** With `CC(=O)OCC(CCn1cnc2cnc(N)nc21)COC(C)=O` [famciclovir, 2-amino-9-(4-acetoxy-3-acetoxymethylbut-1-yl)purine] as the compound, how does the IBS pain relieved ([1]; 300 mg/kg per day) read?
**A.** about 90%

**Q.** And the distended waist circumference ([1]; 300 mg/kg per day, over a period of days, reduced from 44 inches)?
**A.** 38 inches

**Q.** And the IBS pain spasms ([1]; maintenance level of 300 mg/kg per day)?
**A.** dramatically decreased

**Q.** What about the “Raynaud's signs or symptoms (pain, cold, discoloration, lack of sensation, weakness)” value [2] of the same compound?
**A.** dramatically abated

**Q.** And the “reduction in pain of Prinzmetal's angina” value [3]?
**A.** 95%

**Q.** And the elevated blood pressure ([3]; blood pressure lowering medication reduced to a minimum)?
**A.** no hypertension

**Q.** And the “pulse O2 (oxyhemoglobin)” value (patient lung function; after six months of 300 mg/kg per day, from 92%)?
**A.** 96%

**Q.** What about the “pulse O2 (oxyhemoglobin)” value (patient lung function; several years taking about 100 mg/kg) of the same compound?
**A.** 92%

**Q.** What about the fibromyalgia pain reduced [4] of the same compound?
**A.** about 95%

**Q.** What about the “reduction in joint swelling, pain, inflammation and clicks” value [5] of the same compound?
**A.** 100%

**Q.** And the nutcracker esophagus condition [6]?
**A.** completely relieved and prevented

**Q.** What about the “pain associated with autoimmune disease” value [7] of the same compound?
**A.** immediate relief

**Q.** What about the creatinine clearance level [8] of the same compound?
**A.** 89 mL/min

— US20110105434A1, “2-AMINO PURINE DERIVATIVES AND THEIR USE AS ANTI-HERPETIC AGENTS” (priority 2007, published 2011)
